Test results as given in patent US4593097A, “Phenazine carboxylic acid derivatives and a process for production thereof” (Kyowa Hakko Kogyo Co., Ltd., priority 1983, dated 1986).
≈ marks a conversion by molar mass, not a printed value.

Experiments:
[1] = test system: Escherichia coli ATCC 26; experiment: Antibacterial activity by agar dilution method (pH 7.0), Escherichia coli ATCC 26; format: cell-based; conditions: ATCC26, read-out: Minimum Inhibitory Concentration
Source text: (§1) Antibacterial activities of DC-86-Y, -M, -R and -C against various bacteria determined by agar dilution method (pH 7.0) are shown in Table 2.

[2] = in vivo; conditions: mouse, ip
[3] = test system: Staphylococcus aureus ATCC 6538P; experiment: Antibacterial activity by agar dilution method (pH 7.0), Staphylococcus aureus ATCC 6538P; format: cell-based; conditions: ATCC6538P, read-out: Minimum Inhibitory Concentration
Source text: as §1

[4] = test system: Salmonella typhosa ATCC 9992; experiment: Antibacterial activity by agar dilution method (pH 7.0), Salmonella typhosa ATCC 9992; format: cell-based; conditions: Salmonella enterica, pH 7, read-out: Minimum Inhibitory Concentration
Source text: as §1

[5] = test system: Bacillus subtilis No. 10707; experiment: Antibacterial activity by agar dilution method (pH 7.0), Bacillus subtilis No. 10707; format: cell-based; conditions: read-out: Minimum Inhibitory Concentration
Source text: as §1

[6] = test system: Sarcoma 180 ascites tumor cells; experiment: Anti-tumor activity against Sarcoma 180 in mice; format: in vivo, ddy male mice; conditions: 24 h after transplantation, measured 7 days after transplantation
Description: 5×10^6 Sarcoma 180 ascites tumor cells were transplanted to the hypoderm of the armpit cavity of ddy male mice weighing about 20 g, one group being 6 mice. 24 hours after the transplantation, 0.2 ml of a phosphate buffer saline (PBS) solution of a test compound having various concentrations was intraperitoneally administered once. The composition of PBS is 0.8 g/dl NaCl, 0.02 g/dl KCl, […] Na2 HPO4 and 0.02 g/dl KH2 PO4 (pH 7.2). For comparison, 0.2 ml of PBS containing mitomycin C was intraperitoneally administered 24 hours after the transplantation of the tumor cells. Average tumor volume (mm^3) and T/C (T: average tumor volume of mice treated with the test compound, C: average tumor volume of mice treated with 0.2 ml of PBS intraperitoneally)were measured 7 days after the transplantation and the results shown in Table 3 were obtained.

[7] = test system: Klebsiella pneumoniae ATCC 10031; experiment: Antibacterial activity by agar dilution method (pH 7.0), Klebsiella pneumoniae ATCC 10031; format: cell-based; conditions: ATCC10031, read-out: Minimum Inhibitory Concentration
Source text: as §1

[8] = test system: Shigella sonnei ATCC 9290; experiment: Antibacterial activity by agar dilution method (pH 7.0), Shigella sonnei ATCC 9290; format: cell-based; conditions: ATCC9290, read-out: Minimum Inhibitory Concentration
Source text: as §1

Row | Compound | MIC [1] | LD50 [2] | MIC [3] | MIC [4] | MIC [5] | T/C (average tumor volume, treated/control) ([6]; 12.5 mg/kg i.p. once) | T/C (average tumor volume, treated/control) ([6]; 25 mg/kg i.p. once) | T/C (average tumor volume, treated/control) ([6]; 50 mg/kg i.p. once) | MIC [7] | MIC [8] | T/C (average tumor volume, treated/control) ([6]; 5 mg/kg i.p. once) | T/C (average tumor volume, treated/control) ([6]; 10 mg/kg i.p. once) | T/C (average tumor volume, treated/control) ([6]; 20 mg/kg i.p. once) | T/C (average tumor volume, treated/control) ([6]; 100 mg/kg i.p. once) | T/C (average tumor volume, treated/control) ([6]; 200 mg/kg i.p. once) | T/C (average tumor volume, treated/control) ([6]; 6 mg/kg i.p.)
1 | CC(OC(=O)CCl)c1cccc2nc3c(C(=O)O)cccc3nc12 (centres unmarked) [DC-86-C] | > 100 µg/mL | 40 mg/kg | 0.2 µg/mL (≈ 0.58 µM) | 10 µg/mL (≈ 29 µM) | 0.01 µg/mL (≈ 0.029 µM) | 0.98 | 0.72 | dead | > 100 µg/mL | 10 µg/mL (≈ 29 µM) | – | – | – | – | – | –
2 | CC(OC(=O)CO)c1cccc2nc3c(C(=O)O)cccc3nc12 (centres unmarked) [DC-86-M] | 100 µg/mL (≈ 306 µM) | 20 mg/kg | 0.3 µg/mL (≈ 0.919 µM) | 10 µg/mL (≈ 30.6 µM) | 0.1 µg/mL (≈ 0.306 µM) | – | – | – | 100 µg/mL (≈ 306 µM) | 10 µg/mL (≈ 30.6 µM) | 0.97 | 0.82 | 0.36 | – | – | –
3 | CC(OC(=O)COC(C)(C)C)c1cccc2nc3c(C(=O)O)cccc3nc12 (centres unmarked) [DC-86-R] | > 100 µg/mL | 250 mg/kg | 3 µg/mL (≈ 7.84 µM) | > 100 µg/mL | 0.7 µg/mL (≈ 1.83 µM) | – | – | 1.06 | > 100 µg/mL | > 100 µg/mL | – | – | – | 0.87 | 0.86 | –
4 | CC(O)c1cccc2nc3c(C(=O)O)cccc3nc12 (centres unmarked) [DC-86-Y, metal not drawn] | > 100 µg/mL | 300 mg/kg | > 100 µg/mL | > 100 µg/mL | > 100 µg/mL | – | – | – | > 100 µg/mL | > 100 µg/mL | – | – | – | – | – | –
5 | CO[C@@]12[C@H](COC(N)=O)C3=C(C(=O)C(C)=C(N)C3=O)N1C[C@@H]1N[C@@H]12 [Mitomycin C, mitomycin C, reference compound] | – | – | – | – | – | – | – | – | – | – | – | – | – | – | – | 0.28
